Several values for one entry are separate records, joined by “and”; a condition that tells them apart may be missing. Identical values can stand only once.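 Compound exposure: 48 hours, 5 concentrations, 96-well plates. GI50 marks 50% less growth. Definition used: TGI = concentration required for complete inhibition of growth.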

Some test systems named below: MALME-3M melanoma; RPMI-8226 leukemia; HOP-92 NSCLC; SK-MEL-28 melanoma; LOX IMVI melanoma; OVCAR-5 ovarian; SK-MEL-2 melanoma; SF-268 CNS; TK-10 renal; NCI-H226 lung.
Experiment in all cases: NCI anticancer screen, dose series, 48 h

For `CCCCCCCC(=O)O[C@H]1[C@H]2[C@@H](CC1(C)C)C(=O)[C@]13O[C@H]1C(=O)[C@]1(CO1)[C@]23C`, the TGI in the experiment with MALME-3M melanoma was 10.9 µM and 6.34 µM; in the experiment with RPMI-8226 leukemia it was 18.3 µM and 3.34 µM; with HOP-92 NSCLC it was 6.03 µM and 4.81 µM; in the experiment on SK-MEL-28 melanoma, 12.7 µM and 6.55 µM; in the experiment on LOX IMVI melanoma it was 5.63 µM and 5.48 µM; with OVCAR-5 ovarian, 28.8 µM and 25.9 µM. Further, the TGI was 45.5 µM and 8.57 µM in the experiment with SK-MEL-2 melanoma; 23.1 µM and 16.2 µM with SF-268 CNS; 6.47 µM with TK-10 renal; 26.8 µM and 48.9 µM in the experiment on NCI-H226 lung. Moreover, the GI50 was 2.95 µM in the experiment with RPMI-8226 leukemia; 2.83 µM in the experiment on HOP-92 NSCLC; 5.87 µM in the experiment with SK-MEL-28 melanoma; 2.16 µM in the experiment on LOX IMVI melanoma; 15.3 µM in the experiment on OVCAR-5 ovarian; 22.7 µM in the experiment on SK-MEL-2 melanoma. Further, the GI50 in the experiment with SF-268 CNS is 8.17 µM; with NCI-H226 lung, 20.2 µM.

For the compound `COc1cc(C2CC(c3cc(Cl)c(C)cc3O)=NN2c2ccc(S(N)(=O)=O)cc2)cc(OC)c1OC` (stereo not drawn), the GI50 was 2.08 µM in the experiment on MALME-3M melanoma; 2.66 µM with RPMI-8226 leukemia; 2.14 µM with HOP-92 NSCLC; 3 µM in the experiment on SK-MEL-28 melanoma; 2.08 µM in the experiment on LOX IMVI melanoma; 1.87 µM in the experiment with OVCAR-5 ovarian. Further, the GI50 was 3.53 µM in the experiment on SK-MEL-2 melanoma, 4.29 µM in the experiment on SF-268 CNS, 2.6 µM in the experiment on TK-10 renal and 3.73 µM in the experiment with NCI-H226 lung. The TGI in the experiment with MALME-3M melanoma is 4.89 µM; in the experiment on RPMI-8226 leukemia it was 14.8 µM; in the experiment with HOP-92 NSCLC it was 6.99 µM; with SK-MEL-28 melanoma, 7.86 µM; with LOX IMVI melanoma, 4.28 µM; in the experiment with OVCAR-5 ovarian, 4.28 µM. Further, the TGI in the experiment on SK-MEL-2 melanoma was 12 µM; in the experiment with SF-268 CNS it was 34.2 µM; with TK-10 renal, 6.6 µM; with NCI-H226 lung, 13.3 µM.

On to `C=C(C)[C@@H]1CC[C@@H]2C(=CC[C@]3(C)C([C@H](C)CC/C=C(/C)C(=O)O)CC[C@@]23C)[C@@]1(C)CCC(=O)O` (stereo partly drawn), for which the TGI is 61 µM in the experiment on MALME-3M melanoma; 58.2 µM with RPMI-8226 leukemia; 43 µM with HOP-92 NSCLC; 98.9 µM in the experiment with SK-MEL-28 melanoma; 37.8 µM with LOX IMVI melanoma; above 100 µM with OVCAR-5 ovarian. Moreover, the TGI was 45.1 µM in the experiment on SK-MEL-2 melanoma, above 100 µM in the experiment with SF-268 CNS, above 100 µM with TK-10 renal and 83.1 µM with NCI-H226 lung.

Consider `NC(=O)COc1ccc(Br)cc1Br`, for which the TGI in the experiment with MALME-3M melanoma, in the experiment on RPMI-8226 leukemia, in the experiment on HOP-92 NSCLC, in the experiment with SK-MEL-28 melanoma, in the experiment with OVCAR-5 ovarian and in the experiment with SK-MEL-2 melanoma was above 100 µM throughout. For the same compound, the TGI in the experiment on SF-268 CNS and in the experiment on NCI-H226 lung was above 100 µM each time.

For the compound `CCN(CC)CCn1nc2c3c(cccc3c1=O)-c1ccccc1-2`, the GI50 is 1.67 µM in the experiment on MALME-3M melanoma; 3.19 µM in the experiment on RPMI-8226 leukemia; 3.11 µM in the experiment on HOP-92 NSCLC; 2.56 µM in the experiment on SK-MEL-28 melanoma; 1.31 µM in the experiment with LOX IMVI melanoma; 2.3 µM with OVCAR-5 ovarian. Moreover, the GI50 in the experiment on SK-MEL-2 melanoma is 3.79 µM; with SF-268 CNS, 2.87 µM; in the experiment on TK-10 renal, 2.09 µM; in the experiment on NCI-H226 lung, 1.18 µM. The TGI in the experiment on MALME-3M melanoma was 7.37 µM; in the experiment with RPMI-8226 leukemia, 24.2 µM; in the experiment on HOP-92 NSCLC, 24.9 µM; in the experiment with SK-MEL-28 melanoma, 15.6 µM; in the experiment on LOX IMVI melanoma, 4.74 µM; with OVCAR-5 ovarian, above 50 µM. Moreover, the TGI with SK-MEL-2 melanoma worked out at 13 µM; with SF-268 CNS, 21.3 µM; in the experiment on TK-10 renal, 34.4 µM; in the experiment on NCI-H226 lung, 2.58 µM.

`CC(C)C(NCc1c2ccccc2nc2ccccc12)C(=O)O` (stereo not drawn): the TGI in the experiment with MALME-3M melanoma was above 100 µM; with RPMI-8226 leukemia, above 100 µM; in the experiment on HOP-92 NSCLC it was 61.9 µM; in the experiment with SK-MEL-28 melanoma, above 100 µM; in the experiment on LOX IMVI melanoma, above 100 µM; with OVCAR-5 ovarian, above 100 µM. In addition, the TGI in the experiment on SK-MEL-2 melanoma, in the experiment on SF-268 CNS, in the experiment on TK-10 renal and in the experiment with NCI-H226 lung was above 100 µM in each case.

Turning to `Clc1ccc2c(NCCNc3nc(Cl)nc4ccccc34)ccnc2c1`, the GI50 is 1.76 µM in the experiment on MALME-3M melanoma; 0.279 µM with RPMI-8226 leukemia; 1.74 µM with HOP-92 NSCLC; 1.78 µM with SK-MEL-28 melanoma; 1.62 µM in the experiment with OVCAR-5 ovarian; 1.87 µM with SK-MEL-2 melanoma. Also, the GI50 was 1.89 µM in the experiment with SF-268 CNS, 1.95 µM with TK-10 renal and 1.82 µM with NCI-H226 lung. The TGI worked out at 3.47 µM with MALME-3M melanoma; 0.769 µM in the experiment on RPMI-8226 leukemia; 3.4 µM in the experiment on HOP-92 NSCLC; 3.4 µM in the experiment with SK-MEL-28 melanoma; 3.09 µM with OVCAR-5 ovarian; 3.52 µM with SK-MEL-2 melanoma. Moreover, the TGI is 3.84 µM in the experiment with SF-268 CNS, 3.46 µM in the experiment with TK-10 renal and 3.53 µM in the experiment with NCI-H226 lung.

As for `O=C1/C(=C/c2ccc(Cl)cc2)COc2ccc(Br)cc21`, the TGI in the experiment on MALME-3M melanoma is above 100 µM; in the experiment with RPMI-8226 leukemia, 74.4 µM; with HOP-92 NSCLC it was above 100 µM; with SK-MEL-28 melanoma, above 100 µM; in the experiment with LOX IMVI melanoma, above 100 µM; with OVCAR-5 ovarian, above 100 µM. Besides, the TGI with SK-MEL-2 melanoma, in the experiment on SF-268 CNS and in the experiment with TK-10 renal was above 100 µM in each case.

Turning to `COC(=O)C1=C(C)NC(C)=C(C(=O)OC)C1c1ccccc1[N+](=O)[O-]`, the GI50 in the experiment on MALME-3M melanoma was above 100 µM; in the experiment with RPMI-8226 leukemia, 47.6 µM; in the experiment with HOP-92 NSCLC, 23.3 µM; in the experiment on SK-MEL-28 melanoma, above 100 µM; in the experiment with LOX IMVI melanoma, above 100 µM; in the experiment with OVCAR-5 ovarian, above 100 µM. Further, the GI50 is above 100 µM in the experiment with SK-MEL-2 melanoma, above 100 µM with SF-268 CNS, above 100 µM with TK-10 renal and 87.6 µM with NCI-H226 lung. The TGI with MALME-3M melanoma, in the experiment with RPMI-8226 leukemia, with HOP-92 NSCLC, with SK-MEL-28 melanoma, with LOX IMVI melanoma and with OVCAR-5 ovarian was above 100 µM each time. The TGI with SK-MEL-2 melanoma, with SF-268 CNS, in the experiment on TK-10 renal and with NCI-H226 lung was above 100 µM throughout.

Values taken from PubChem BioAssay (NCI).
